Series [1] in a line: In vitro metabolic stability, human liver microsomes. To be noted: CLint expressed as mL/min/g liver. It counts as in vitro ADME. Here is the method: (§1) The objective of this study was to determine metabolic stability of test items in rat and human liver microsomes. Verapamil and dextromethorphan were used as positive controls for microsomal incubation.
(§2) Incubation medium was prepared by combining 11.2 mL of potassium phosphate monobasic and 38.8 mL of potassium phosphate dibasic, diluted to 1 L with water. Cryopreserved microsomes were thawed and kept on ice until use. Microsomes were then diluted in incubation to a protein concentration of 0.56 mg/mL. […]
(§3) NADPH regenerating system solution was prepared by dissolving 1.7 mg of NADP, 7.8 mg of G6P and 6 units of G6P-Dehydrogenase in 1 mL of 2% sodium bicarbonate solution (prepared by dissolving 20 g of NaHCO3 in 1 L of water).
(§4) Test compounds were separately dissolved in DMF to obtain 10 mM stock solutions that were further diluted in water/acetonitrile 50/50 (v/v) to obtain the corresponding 50 μM working solutions. Verapamil and dextromethorphan were dissolved in DMF in order to obtain a 10 mM verapamil solution and 10 mM dextromethorphan solution. These solutions were then diluted in the incubation medium in order to obtain a 50 μM verapamil working solution and a 50 μM dextromethorphan working solution.
(§5) 800 μL-aliquots of NADPH regenerating system were pre-warmed at 37° C. for 5 minutes. 5 μL of 50 µM test compounds, verapamil or dextromethorphan were added to 445 μL of the 0.56 mg/mL microsomes solution and the incubation mixture was pre-warmed in a 96 deep well 2 mL plate (incubation plate) at 37° C. for 5 minutes. The incubation reactions were initiated by adding 50 μL of pre-warmed NADPH regenerating system to the incubation mixtures. 50 μL aliquots were taken from incubation mixtures at: 0, 3, 6, 9, 15, and 30 minutes and the reactions were stopped by adding 100 μL of aceronitrile with the corresponding internal standard. Samples were then diluted with 120 μL of water (final organic solvent percentage at 37%) and centrifuged at 3000 rpm for 10 minutes, prior the LC-MS/MS analysis.
(§6) Metabolic stability was calculated from the peak area ratio of the remaining test compound with internal standard versus time. The intrinsic clearance (CLint) was determined from the first order elimination constant k (min^−1) (obtained from GraphPad by plotting the natural logarithm of the peak area ratio of the remaining test item with internal standard versus time), using the actual volume of the incubation V (mL), the amount of hepatocytes in the incubation M (million cells) and the hepatocellularity number per a liver Hn (120 for human).
For orientation: Liver microsomes are vesicles of endoplasmic reticulum, rich in cytochrome P450 enzymes.

The nature of series [2]: In vitro metabolic stability, rat liver microsomes. Format: in vitro ADME. The conditions noted are these: CLint expressed as mL/min/g liver. The protocol:
as §1, §2, §3, §4, §5, §6

The nature of series [3]: Determination of blood and brain tissue binding (equilibrium dialysis). Format: in vitro ADME, Sprague Dawley rat. The conditions noted are these: Sprague Dawley, 5 h at 37° C.; for fraction unbound at 5 h, 5 micromolar: 1:2 (w/v) in artificial CSF, rat brain homogenate, read-out: % FU Brain; for fraction unbound at 5 h, 0.5 micromolar: whole blood diluted 1:1 (v/v) with isotonic phosphate buffer, rat whole blood, read-out: % FU Blood. Here is the method: Sprague Dawley rat whole blood, collected on the week of the experiment using K3-EDTA as an anti-coagulant, is diluted with isotonic phosphate buffer 1:1 (v/v). Sprague Dawley rat whole brain, stored frozen at −20° C., is thawed and homogenised in artificial cerebrospinal fluid (CSF) 1:2 (w/v).
An appropriate amount of test compound is dissolved in DMSO to give a 10 millimolar solution. Further dilutions, to obtain a 166.7 micromolar working solution are then prepared using 50% acetonitrile in MilliQ water. This working solution is used to spike the blood to obtain a final concentration of 0.5 micromolar in whole blood. Similarly, the working solution is used to spike brain samples to obtain a final concentration of 5 micromolar in whole brain. From these spiked blood and brain preparations, control samples (n=3), are immediately extracted and used to calculate the initial recovery of the test items.
150 microL of compound-free buffer (isotonic phosphate buffer for blood or artificial CSF buffer for brain) is dispensed in one half-well and 150 microL of spiked matrix (blood or brain) is loaded in the other half-well, with the two halves separated by a semi-permeable membrane. After an equilibration period of 5 h at 37° C., 50 microL of dialysed matrix (blood or brain) is added to 50 microL of corresponding compound-free buffer, and vice-versa for buffer, such that the volume of buffer to matrix (blood or brain) remains the same. Samples are then extracted by protein precipitation with 300 microL of acetonitrile containing rolipram (control for positive ionization mode) or diclofenac (control for negative ionization mode) as internal standards and centrifuged for 10 min at 3000 rpm. Supernatants are collected (100 microL), diluted with 27% AcN in MilliQ water (200 microL) and then injected into an HPLC-MS/MS or UPLC-MS/MS system to determine the concentration of test compound present.
Blood and brain tissue binding are then determined using the following formulas:
where Afu=apparent fraction unbound; Buffer=analyte/internal standard ratio determined in the buffer compartment; Blood=analyte/internal standard ratio determined in the blood compartment; Brain=analyte/internal standard ratio determined in the brain compartment.
where: fucr=Fraction unbound corrected; D=matrix dilution factor (D=2 for blood and D=3 for brain). then: […]
A general note: In equilibrium dialysis free small molecules cross a membrane that holds back macromolecules.

Another series has as its target T1, Kv3.1 (Homo sapiens, UniProt P48547).
T1 sequence (P48547 1-511): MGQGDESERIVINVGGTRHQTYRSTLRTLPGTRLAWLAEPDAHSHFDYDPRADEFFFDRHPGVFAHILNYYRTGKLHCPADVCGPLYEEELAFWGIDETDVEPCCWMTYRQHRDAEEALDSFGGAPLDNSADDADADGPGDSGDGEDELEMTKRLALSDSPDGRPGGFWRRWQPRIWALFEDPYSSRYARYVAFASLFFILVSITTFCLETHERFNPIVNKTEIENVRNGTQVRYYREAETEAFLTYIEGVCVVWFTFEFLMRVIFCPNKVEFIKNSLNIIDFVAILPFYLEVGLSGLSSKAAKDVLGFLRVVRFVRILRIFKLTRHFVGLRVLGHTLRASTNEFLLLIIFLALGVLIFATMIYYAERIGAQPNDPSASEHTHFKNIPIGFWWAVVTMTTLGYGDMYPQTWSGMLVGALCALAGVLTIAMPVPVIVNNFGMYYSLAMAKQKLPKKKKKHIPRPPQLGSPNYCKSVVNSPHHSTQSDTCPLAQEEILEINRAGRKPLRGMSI
To be noted: Table 5, RE12 and RE13; based on EC50 value as reported in WO2021214090; cited from earlier work.

Here are results for two compounds from patent publication US20240327406A1, “POTASSIUM CHANNEL MODULATORS” (Autifony Therapeutics Limited, priority 2021, published 2024).

Marks after values point to notes of the source that are not given here.

`Cc1ccc(Oc2ccc(-n3c(=O)[nH]c4cncnc43)cn2)cc1OC(F)(F)F` [RE12, reference compound] yielded a Cli human in series [1] of 1.7 mL/min/g. The compound also returned a Cli rat in series [2] of 1.5 mL/min/g. Also, in series [3], the fraction unbound at 5 h, 5 micromolar came out at 0.006 and the fraction unbound at 5 h, 0.5 micromolar is 0.007. Besides, on Kv3.1, the “Kv3.1 pEC50” value is listed as 5.2*.
In series [1], `Cc1ccc(Oc2ccc(-n3c(=O)[nH]c4cnccc43)cn2)cc1OC(F)(F)F` [RE13, reference compound] returned a Cli human of 0.6 mL/min/g. This compound also returned a Cli rat in series [2] of 1.3 mL/min/g. Further, in series [3], the fraction unbound at 5 h, 5 micromolar stood at 0.005 and the fraction unbound at 5 h, 0.5 micromolar is 0.013. Moreover, the “Kv3.1 pEC50” value at Kv3.1 is 5.6**.
